Structures are written as SMILES.

biotinylated human S100A9 : rhRAGE-Fc interaction, sequence (P06702 whole entry): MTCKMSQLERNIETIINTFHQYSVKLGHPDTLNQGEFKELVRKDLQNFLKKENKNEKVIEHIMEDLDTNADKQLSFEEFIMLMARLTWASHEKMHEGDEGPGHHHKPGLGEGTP

The assay deals with biotinylated human S100A9 : rhRAGE-Fc interaction (Homo sapiens (Human), UniProt P06702). In words: AlphaScreen inhibition assay, Biot-hS100A9:hRAGE-Fc (S100A9-RAGE inhibition assay). Format: binding. An excerpt:
FIG. 1 is a schematic representation of an assay of the inhibition of the interaction between biotinylated human S100A9 and human RAGE-Fc using a small molecule S100A9 binder.
Inhibition Assay, Biot-hS100A9:hRAGE-Fc
The AlphaScreen (Amplified Luminescent Proximity Homogeneous Assay) contains two types of beads, Alpha Donor beads and Acceptor beads (PerkinElmer). Upon laser excitation at 680 nm a photosensitizer in the Donor bead converts ambient oxygen to a more excited singlet state. The singlet oxygen molecule diffuses (maximum 200 nm) to react with a thioxene derivative in the Acceptor bead and generates a chemiluminescence reaction. Fluorophores in the Acceptor bead subsequently emit light at 520-620 nm which can be detected in the EnVision® Multilabel plate Reader (PerkinElmer). The beads are light sensitive and all work with the beads is performed under subdued light conditions or using green filters on light sources (Roscolux Chroma Green #389, Rosco).
In the AlphaScreen Inhibition Assay described here, protein A (Staphylococcus aureus) conjugated Acceptor beads are used together with streptavidin coated Donor beads (Perkin Elmer 6760617M). The Acceptor beads are pre-incubated with Fc-tagged recombinant human RAGE (rhRAGE-Fc) allowing binding of the rhRAGE-Fc to protein A on the beads. Biotinylated human S100A9 (biot-hS100A9) is pre-incubated with the low molecular test compounds. The pre-mixes are then added to the wells of a micro-plate and incubated allowing interaction between biot-hS100A9 and rhRAGE-Fc. Subsequent addition of streptavidin coated Donor beads causes binding of the streptavidin to the biotinylated hS100A9. After an additional incubation the signal is measured.
Without inhibitory compounds, the interaction of biot-hS100A9 to rhRAGE-Fc will bring the Acceptor and Donor beads in close proximity thus generating a high signal. With an inhibitor present the complex will not form resulting in a decreased signal.
Chemicals and reagents. • AlphaScreen® General IgG (Protein A) Detection Kit, (PerkinElmer 6760617M) • HBS-P buffer (GE Healthcare, BR-1003-68) • HBS-N buffer (GE Healthcare, BR-1003-69) • CaCl2 in HBS-P • ZnCl2 in Milli-Q water • DMSO • Biotinylated hS100A9, (biotinylated via cystein by EZ-link Iodoacetyl-PEG2-Biotin reagent (Pierce no. 21334), in HBS-N • rhRAGE-Fc (R&D Systems, 1145-RG-50), in HBS-P
The AlphaScreen assay method is used for screening of the inhibitory effect of different compound samples at fixed concentrations or for IC50 determination by varying the compound concentrations. Samples of test compounds and references are prepared from solutions in DMSO. Relevant reference inhibitors and DMSO are used as controls for defined inhibition and non-inhibition, respectively in the assay. The percent inhibition in assay for test compounds and references are calculated by comparing their obtained assay signals with the signal values for the control with only DMSO (no compound).
Assay concentration of biotinylated hS100A9 and rhRAGE-Fc are batch dependent, and are determined and defined by separate cross-titration experiments using this AlphaScreen inhibition method to verify the optimal setup regarding signal strength and achievement of a defined inhibition with relevant reference compounds. The Final assay concentrations of Acceptor and Donor beads are 20 μg/mL.
Experimental Set Up for Screening, Preparation of Solutions and Beads.
Assay buffer is prepared by adding CaCl2 and ZnCl2 to HBS-P and is used freshly prepared in the experiment.
Biotin-hS100A9 solution for the experiment is prepared by dilution of appropriate amount of stock solution biot-hS100A9 in assay buffer (with CaCl2 and ZnCl2) and incubation in room temperature for 30 minutes.
rhRAGE-Fc solution for the experiment is prepared by dilution appropriate amount of rhRAGE-Fc stock in assay buffer.
Protein A Acceptor beads are diluted in assay buffer and are added to an equal volume of the prepared diluted rhRAGE-Fc solution.
On the technique in general: Alpha assays give light when donor and acceptor beads are brought close together.
In the case of `CCS(=O)(=O)c1ccc(NS(=O)(=O)Cc2cc(Cl)cc(Cl)c2)c(O)n1` [Example 188, 1-(3,5-dichlorophenyl)-N-[6-(ethanesulfonyl)-2-hydroxypyridin-3-yl]methane-sulfonamide], the IC50 (commonly the concentration that inhibits the measured activity by half) was less than 1000 nM.

As to `CS(=O)(=O)c1nc(NS(=O)(=O)Cc2cc(Cl)cc(Cl)c2)c(O)cc1Cl` [Example 134, N-(5-chloro-3-hydroxy-6-methanesulfonylpyridin-2-yl)-1-(3,5-dichlorophenyl)-methanesulfonamide], the concentration for half-maximal inhibition (IC50) turned out to be 530 nM.

On to `N#Cc1cnc(NS(=O)(=O)Cc2cc(Cl)cc(Cl)c2)c(O)c1` [Example 189, N-(5-cyano-3-hydroxypyridin-2-yl)-1-(3,5-dichlorophenyl)methanesulfonamide], for which the IC50 came out at 120 nM.

On to `O=S(=O)(Nc1nc(Cl)ncc1O)c1ccc(Cl)c(Cl)c1` [Example 144, 3,4-dichloro-N-(2-chloro-5-hydroxypyrimidin-4-yl)benzene-1-sulfonamide], for which the IC50 is less than 1000 nM.

Take `N#Cc1cnc(NS(=O)(=O)Cc2cc(Cl)cc(Cl)c2)c(O)n1` [Example 103, N-(5-cyano-3-hydroxypyrazin-2-yl)-1-(3,5-dichlorophenyl)methanesulfonamide]: the IC50 was less than 1000 nM.

Turning to `CC(C)c1cnc(NS(=O)(=O)c2cnc(Cl)c(Br)c2)c(O)c1` [Example 11, 5-bromo-6-chloro-N-[3-hydroxy-5-(propan-2-yl)pyridin-2-yl]pyridine-3-sulfonamide], the IC50 was more than 1000 nM.

Consider `O=S(=O)(Cc1cc(Cl)cc(Cl)c1)Nc1nc(C(F)(F)F)ncc1O` [Example 157, 1-(3,5-dichlorophenyl)-N-[5-hydroxy-2-(trifluoromethyl)pyrimidin-4-yl]methane-sulfonamide], for which the IC50 was less than 1000 nM.

Regarding `CCS(=O)(=O)c1cc(O)c(NS(=O)(=O)Cc2cc(Cl)cc(Cl)c2)nn1` [Example 111, 1-(3,5-dichlorophenyl)-N-[6-(ethanesulfonyl)-4-hydroxypyridazin-3-yl]methanesulfonamide], the IC50 is 100 nM.

In the case of `O=S(=O)(Cc1cc(Cl)cc(Cl)c1)Nc1ncc(S(=O)(=O)C2CCCC2)cc1O` [Example 131, N-[5-(cyclopentanesulfonyl)-3-hydroxypyridin-2-yl]-1-(3,5-dichlorophenyl)methane-sulfonamide], the IC50 was determined as 120 nM.

Take `O=S(=O)(Nc1cnccc1O)c1cc(Cl)sc1Cl` [Example 63, 2,5-dichloro-N-(4-hydroxypyridin-3-yl)thiophene-3-sulfonamide]: the IC50 worked out at 4600 nM.

As for `O=S(=O)(Cc1ccc(C(F)(F)F)cc1)Nc1ccc(Cl)nc1O` [Example 178, N-(6-chloro-2-hydroxypyridin-3-yl)-1-[4-(trifluoromethyl)phenyl]methane-sulfonamide], the 50% inhibitory concentration (IC50) is more than 1000 nM.

With `CS(=O)(=O)c1cnc(NS(=O)(=O)c2cc(Cl)cc(Cl)c2)c(O)n1` [Example 159, 3,5-dichloro-N-(3-hydroxy-5-methanesulfonylpyrazin-2-yl)benzene-1-sulfonamide], the IC50 worked out at 1800 nM.

In the case of `COc1ncc(S(=O)(=O)Nc2cnccc2O)cc1Br` [Example 62, 5-bromo-N-(4-hydroxypyridin-3-yl)-6-methoxypyridine-3-sulfonamide], the IC50 came out at 4400 nM.

Turning to `O=S(=O)(Nc1nnc(Cl)cc1O)c1cc(Cl)sc1Cl` [Example 113, 2,5-dichloro-N-(6-chloro-4-hydroxypyridazin-3-yl)thiophene-3-sulfonamide], the IC50 turned out to be 2000 nM.

For the molecule `CCSc1cc(Cl)cc(CS(=O)(=O)Nc2ccc(Cl)nc2O)c1` [Example 186, N-(6-chloro-2-hydroxypyridin-3-yl)-1-[3-chloro-5-(ethylsulfanyl)phenyl]methane-sulfonamide], the IC50 was less than 1000 nM.

Regarding `O=S(=O)(Nc1ncc(Cl)cc1O)c1cncc(Br)c1` [Example 40, 5-bromo-N-(5-chloro-3-hydroxypyridin-2-yl)pyridine-3-sulfonamide], the IC50 worked out at 3000 nM.

In the case of `O=S(=O)(Cc1cnc(N2CCCC2)c(Cl)c1)Nc1ccc(Cl)nc1O` [Example 185, N-(6-chloro-2-hydroxypyridin-3-yl)-1-[5-chloro-6-(pyrrolidin-1-yl)pyridin-3-yl]-methanesulfonamide], the half-inhibitory concentration (IC50) was less than 1000 nM.

On to `O=S(=O)(Cc1cc(Cl)cc(Cl)c1)Nc1cnc(Cl)nc1O` [Example 107, N-(2-chloro-4-hydroxypyrimidin-5-yl)-1-(3,5-dichlorophenyl)methanesulfonamide], for which the IC50 is 4000 nM.

As to `COc1ncc(S(=O)(=O)Nc2cnc(C(F)(F)F)cc2O)cc1Br` [Example 137, 5-bromo-N-[4-hydroxy-6-(trifluoromethyl)pyridin-3-yl]-6-methoxypyridine-3-sulfonamide], the IC50 is 1800 nM.

Regarding `O=S(=O)(Nc1ncc(Br)nc1O)C(c1cc(Cl)cc(Cl)c1)C(F)(F)F` (racemic) [Example 141, (+/−)-N-(5-bromo-3-hydroxypyrazin-2-yl)-1-(3,5-dichlorophenyl)-2,2,2-trifluoroethane-1-sulfonamide], the IC50 is less than 1000 nM.

Turning to `O=S(=O)(Cc1cc(F)cc(Cl)c1)Nc1nnc(Cl)cc1O` [Example 94, N-(6-chloro-4-hydroxypyridazin-3-yl)-1-(3-chloro-5-fluorophenyl)methane-sulfonamide], the IC50 is 300 nM.

For the molecule `COc1ncc(CS(=O)(=O)Nc2ccc(Cl)nc2O)cc1Cl` [Example 182, N-(6-chloro-2-hydroxypyridin-3-yl)-1-(5-chloro-6-methoxypyridin-3-yl)methane-sulfonamide], the IC50 is less than 1000 nM.
